Data from patent publication US9978954B2, “Benzobis (thiadiazole) derivative, ink comprising same, and organic electronic device comprising same” (UBE INDUSTRIES, LTD., priority 2013, dated 2018).
Blank lines part the entries; values can stand above or below the compound they belong to.

Assay: Evaluation of solubility in organic solvents (visual observation of complete dissolution)
Assay type: physicochemical
Experimental: [Evaluation of Solubility]
The evaluation of the solubility of the synthesized compound was conducted by the following method.
About 2-3 mg of the compound was precisely weighed, and each solvent was added to the compound such that a predetermined concentration of the solute (0.5 wt %, 0.3 wt %, 0.2 wt %, 0.1 wt %, 0.05 wt %, or 0.03 wt %) was reached. The resultant mixture was stirred for 30 minutes at a predetermined temperature, and then it was evaluated by visual appearance observation whether or not the solute (synthesized compound) was completely dissolved in the solvent, which was the result of the evaluation of the solubility. As the solvent, chloroform (boiling point 61° C.), toluene (boiling point 111° C.), xylene (boiling point 144° C.), mesitylene (boiling point 165° C.), chlorobenzene (boiling point 130° C.), para-chlorotoluene (boiling point 162° C.), and ortho-dichlorobenzene (boiling point 181° C.) were used.

[1] = chloroform, 25° C. (room temperature)

Compound: 4,8-bis[5-(4-cyano-3-(2-methylhexyl)phenyl)thiophene-2-yl]benzo[1,2-c:4,5-c′]bis[1,2,5]thiadiazole [Compound (C29)]
- solubility (solute concentration completely dissolved) (1-methylnaphthalene, 60° C.): ≥ 0.3 wt %
- solubility (solute concentration completely dissolved) (chloroform, 60° C.): ≥ 0.1 wt %

Compound: CCCCCCc1cc(-c2ccc(-c3c4c(c(-c5ccc(-c6ccc(C(F)(F)F)c(CCCCCC)c6)s5)c5nsnc35)N=S=N4)s2)ccc1C(F)(F)F [Compound (C10), 4,8-bis[5-(3-hexyl-4-(trifluoromethyl)phenyl)thiophene-2-yl]benzo[1,2-c:4,5-c′]bis[1,2,5]thiadiazole]
- solubility (solute concentration completely dissolved) (chlorobenzene, 25° C.): ≥ 0.03 wt %
- solubility (solute concentration completely dissolved) (chlorobenzene, 60° C.): ≥ 0.1 wt %
- solubility (solute concentration completely dissolved) (chlorobenzene, 80° C.): ≥ 0.3 wt %
- solubility (solute concentration completely dissolved) (mesitylene, 25° C.): ≥ 0.03 wt %
- solubility (solute concentration completely dissolved) (ortho-dichlorobenzene, 25° C.): ≥ 0.03 wt %
- solubility (solute concentration completely dissolved) (ortho-dichlorobenzene, 60° C.): ≥ 0.1 wt %
- solubility (solute concentration completely dissolved) (ortho-dichlorobenzene, 100° C.): ≥ 0.5 wt %
- solubility (solute concentration completely dissolved) (toluene, 25° C.): ≥ 0.03 wt %

Compound: CCCCCCCCCCCCc1cc(-c2ccc(-c3c4c(c(-c5ccc(-c6ccc(C#N)c(CCCCCCCCCCCC)c6)s5)c5nsnc35)N=S=N4)s2)ccc1C#N [Compound (C17), 4,8-bis[5-(4-cyano-3-dodecylphenyl)thiophene-2-yl]benzo[1,2-c:4,5-c′]bis[1,2,5]thiadiazole]
- solubility (solute concentration completely dissolved) (chlorobenzene, 80° C.): ≥ 0.3 wt %
- solubility (solute concentration completely dissolved) (chloroform, 60° C.): ≥ 0.2 wt %
- solubility (solute concentration completely dissolved) (ortho-dichlorobenzene, 60° C.): ≥ 0.3 wt %
- solubility (solute concentration completely dissolved) (para-chlorotoluene, 80° C.): ≥ 0.3 wt %
- solubility (solute concentration completely dissolved) (xylene, 100° C.): ≥ 0.3 wt %

Compound: CCCCCCCCCCc1cc(-c2ccc(-c3c4c(c(-c5ccc(-c6ccc(C#N)c(CCCCCCCCCC)c6)s5)c5nsnc35)N=S=N4)s2)ccc1C#N [Compound (C16), 4,8-bis[5-(4-cyano-3-decylphenyl)thiophene-2-yl]benzo[1,2-c:4,5-c′]bis[1,2,5]thiadiazole]
- solubility (solute concentration completely dissolved) (chlorobenzene, 80° C.): ≥ 0.3 wt %
- solubility (solute concentration completely dissolved) (chloroform, 60° C.): ≥ 0.2 wt %
- solubility (solute concentration completely dissolved) (ortho-dichlorobenzene, 80° C.): ≥ 0.3 wt %
- solubility (solute concentration completely dissolved) (para-chlorotoluene, 80° C.): ≥ 0.3 wt %

Compound: CCCCCCCCc1ccc(-c2ccc(-c3c4c(c(-c5ccc(-c6ccc(CCCCCCCC)c(C#N)c6)s5)c5nsnc35)N=S=N4)s2)cc1C#N [Compound (C26), 4,8-bis[5-(3-cyano-4-octylphenyl)thiophene-2-yl]benzo[1,2-c:4,5-c′]bis[1,2,5]thiadiazole]
- solubility (solute concentration completely dissolved) (1-methylnaphthalene, 60° C.): ≥ 0.3 wt %
- solubility (solute concentration completely dissolved) [1]: ≥ 0.2 wt %
- solubility (solute concentration completely dissolved) (mesitylene, 80° C.): ≥ 0.3 wt %
- solubility (solute concentration completely dissolved) (ortho-dichlorobenzene, 60° C.): ≥ 0.3 wt %
- solubility (solute concentration completely dissolved) (toluene, 80° C.): ≥ 0.3 wt %

Compound: CCCCCCCCCCC(F)(F)c1ccc(-c2ccc(-c3c4c(c(-c5ccc(-c6ccc(C(F)(F)CCCCCCCCCC)cc6)s5)c5nsnc35)N=S=N4)s2)cc1 [Compound (RC3), 4,8-bis[5-(4-(1,1-difluoroundecyl)phenyl)thiophene-2-yl]benzo[1,2-c:4,5-c′]bis[1,2,5]thiadiazole, reference compound]
- solubility (solute concentration completely dissolved) (chlorobenzene, 60° C.): < 0.03 wt %
- solubility (solute concentration completely dissolved) (mesitylene, 60° C.): < 0.03 wt %
- solubility (solute concentration completely dissolved) (toluene, 60° C.): < 0.03 wt %

Compound: CCCCCCCc1cc(-c2ccc(-c3c4c(c(-c5ccc(-c6ccc(C#N)c(CCCCCCC)c6)s5)c5nsnc35)N=S=N4)s2)ccc1C#N [Compound (C13), 4,8-bis[5-(4-cyano-3-heptylphenyl)thiophene-2-yl]benzo[1,2-c:4,5-c′]bis[1,2,5]thiadiazole]
- solubility (solute concentration completely dissolved) (chlorobenzene, 80° C.): ≥ 0.3 wt %
- solubility (solute concentration completely dissolved) [1]: ≥ 0.2 wt %
- solubility (solute concentration completely dissolved) (ortho-dichlorobenzene, 80° C.): ≥ 0.3 wt %
- solubility (solute concentration completely dissolved) (para-chlorotoluene, 80° C.): ≥ 0.3 wt %

Compound: FC(F)(F)c1cccc(-c2ccc(-c3c4c(c(-c5ccc(-c6cccc(C(F)(F)F)c6)s5)c5nsnc35)N=S=N4)s2)c1 [Compound (C2), 4,8-bis[5-(3-(trifluoromethyl)phenyl)thiophene-2-yl]benzo[1,2-c:4,5-c′]bis[1,2,5]thiadiazole]
- solubility (solute concentration completely dissolved) (chlorobenzene, 80° C.): ≥ 0.1 wt %
- solubility (solute concentration completely dissolved) (chlorobenzene, 100° C.): ≥ 0.3 wt %
- solubility (solute concentration completely dissolved) (mesitylene, 25° C.): ≥ 0.03 wt %
- solubility (solute concentration completely dissolved) (mesitylene, 80° C.): ≥ 0.1 wt %
- solubility (solute concentration completely dissolved) (ortho-dichlorobenzene, 80° C.): ≥ 0.1 wt %
- solubility (solute concentration completely dissolved) (ortho-dichlorobenzene, 100° C.): ≥ 0.5 wt %
- solubility (solute concentration completely dissolved) (toluene, 25° C.): ≥ 0.03 wt %
- solubility (solute concentration completely dissolved) (toluene, 100° C.): ≥ 0.1 wt %

Compound: CCCCCCCCCCCCc1ccc(-c2ccc(-c3c4c(c(-c5ccc(-c6ccc(CCCCCCCCCCCC)c(C(F)(F)F)c6)s5)c5nsnc35)N=S=N4)s2)cc1C(F)(F)F [Compound (C28), 4,8-bis[5-(4-dodecyl-3-(trifluoromethyl)phenyl)thiophene-2-yl]benzo[1,2-c:4,5-c′]bis[1,2,5]thiadiazole]
- solubility (solute concentration completely dissolved) (1-methylnaphthalene, 100° C.): ≥ 0.3 wt %
- solubility (solute concentration completely dissolved) (chloroform, 80° C.): ≥ 0.1 wt %
- solubility (solute concentration completely dissolved) (mesitylene, 100° C.): ≥ 0.3 wt %
- solubility (solute concentration completely dissolved) (ortho-dichlorobenzene, 80° C.): ≥ 0.3 wt %
- solubility (solute concentration completely dissolved) (toluene, 100° C.): ≥ 0.3 wt %

Now from value to compound:

- solubility (solute concentration completely dissolved) (chlorobenzene, 130° C.): ≥ 0.1 wt %
- solubility (solute concentration completely dissolved) (mesitylene, 130° C.): ≥ 0.1 wt %
- solubility (solute concentration completely dissolved) (ortho-dichlorobenzene, 100° C.): ≥ 0.1 wt %
Compound: FC(F)(F)c1cc(-c2ccc(-c3c4c(c(-c5ccc(-c6cc(C(F)(F)F)cc(C(F)(F)F)c6)s5)c5nsnc35)N=S=N4)s2)cc(C(F)(F)F)c1 [Compound (C3), 4,8-bis[5-(3,5-bis(trifluoromethyl)phenyl)thiophene-2-yl]benzo[1,2-c:4,5-c′]bis[1,2,5]thiadiazole]

- solubility (solute concentration completely dissolved) (chlorobenzene, 60° C.): ≥ 0.1 wt %
- solubility (solute concentration completely dissolved) (chlorobenzene, 80° C.): ≥ 0.5 wt %
- solubility (solute concentration completely dissolved) (mesitylene, 80° C.): ≥ 0.1 wt %
- solubility (solute concentration completely dissolved) (mesitylene, 130° C.): ≥ 0.5 wt %
- solubility (solute concentration completely dissolved) (ortho-dichlorobenzene, 60° C.): ≥ 0.1 wt %
- solubility (solute concentration completely dissolved) (ortho-dichlorobenzene, 80° C.): ≥ 0.5 wt %
Compound: CCCCCCc1cc(-c2ccc(-c3c4c(c(-c5ccc(-c6ccc(OC(F)(F)F)c(CCCCCC)c6)s5)c5nsnc35)N=S=N4)s2)ccc1OC(F)(F)F [Compound (C12)]

- solubility (solute concentration completely dissolved) (1-methylnaphthalene, 100° C.): ≥ 0.3 wt %
- solubility (solute concentration completely dissolved) (chlorobenzene, 100° C.): ≥ 0.3 wt %
- solubility (solute concentration completely dissolved) (chloroform, 60° C.): ≥ 0.1 wt %
- solubility (solute concentration completely dissolved) (ortho-dichlorobenzene, 80° C.): ≥ 0.3 wt %
Compound: CCCCCCCCCCCCCCCCCCc1cc(-c2ccc(-c3c4c(c(-c5ccc(-c6ccc(C#N)c(CCCCCCCCCCCCCCCCCC)c6)s5)c5nsnc35)N=S=N4)s2)ccc1C#N [Compound (C20), 4,8-bis[5-(4-cyano-3-octadecylphenyl)thiophene-2-yl]benzo[1,2-c:4,5-c′]bis[1,2,5]thiadiazole]

- solubility (solute concentration completely dissolved) (1-methylnaphthalene, 60° C.): ≥ 0.3 wt %
- solubility (solute concentration completely dissolved) (chloroform, 60° C.): ≥ 0.2 wt %
- solubility (solute concentration completely dissolved) (mesitylene, 80° C.): ≥ 0.3 wt %
- solubility (solute concentration completely dissolved) (ortho-dichlorobenzene, 80° C.): ≥ 0.3 wt %
- solubility (solute concentration completely dissolved) (toluene, 80° C.): ≥ 0.3 wt %
Compound: CCCCC(CC)Cc1cc(-c2ccc(-c3c4c(c(-c5ccc(-c6ccc(C(F)(F)F)c(CC(CC)CCCC)c6)s5)c5nsnc35)N=S=N4)s2)ccc1C(F)(F)F (centres unmarked) [Compound (C30)]

- solubility (solute concentration completely dissolved) (1-methylnaphthalene, 60° C.): ≥ 0.3 wt %
- solubility (solute concentration completely dissolved) (chloroform, 60° C.): ≥ 0.2 wt %
- solubility (solute concentration completely dissolved) (mesitylene, 60° C.): ≥ 0.3 wt %
- solubility (solute concentration completely dissolved) (ortho-dichlorobenzene, 60° C.): ≥ 0.3 wt %
- solubility (solute concentration completely dissolved) (toluene, 60° C.): ≥ 0.3 wt %
Compound: CCCCCCCCc1ccc(-c2ccc(-c3c4c(c(-c5ccc(-c6ccc(CCCCCCCC)c(C(F)(F)F)c6)s5)c5nsnc35)N=S=N4)s2)cc1C(F)(F)F [Compound (C25), 4,8-bis[5-(4-octyl-3-(trifluoromethyl)phenyl)thiophene-2-yl]benzo[1,2-c:4,5-c′]bis[1,2,5]thiadiazole]

- solubility (solute concentration completely dissolved) (chlorobenzene, 80° C.): ≥ 0.1 wt %
- solubility (solute concentration completely dissolved) (chlorobenzene, 130° C.): ≥ 0.5 wt %
- solubility (solute concentration completely dissolved) (mesitylene, 80° C.): ≥ 0.1 wt %
- solubility (solute concentration completely dissolved) (mesitylene, 130° C.): ≥ 0.3 wt %
- solubility (solute concentration completely dissolved) (ortho-dichlorobenzene, 80° C.): ≥ 0.1 wt %
- solubility (solute concentration completely dissolved) (ortho-dichlorobenzene, 130° C.): ≥ 0.5 wt %
- solubility (solute concentration completely dissolved) (toluene, 80° C.): ≥ 0.1 wt %
Compound: FC(F)(F)Sc1cccc(-c2ccc(-c3c4c(c(-c5ccc(-c6cccc(SC(F)(F)F)c6)s5)c5nsnc35)N=S=N4)s2)c1 [Compound (C6), 4,8-bis[5-(3-((trifluoromethyl)thio)phenyl)thiophene-2-yl]benzo[1,2-c:4,5-c′]bis[1,2,5]thiadiazole]

- solubility (solute concentration completely dissolved) (mesitylene, 80° C.): ≥ 0.1 wt %
- solubility (solute concentration completely dissolved) (mesitylene, 130° C.): ≥ 0.3 wt %
- solubility (solute concentration completely dissolved) (toluene, 100° C.): ≥ 0.1 wt %
Compound: FC(F)(F)Oc1cccc(-c2ccc(-c3c4c(c(-c5ccc(-c6cccc(OC(F)(F)F)c6)s5)c5nsnc35)N=S=N4)s2)c1 [Compound (C1), 4,8-bis[5-(3-(trifluoromethoxy)phenyl)thiophene-2-yl]benzo[1,2-c:4,5-c′]bis[1,2,5]thiadiazole]
